We go through 13 molecules from patent publication US20250034161A1, “SPIROCYCLIC COMPOUND AS KRAS-G12C INHIBITOR” (Shanghai Euregen Biopharma Co., Ltd., priority 2020, published 2025).

Read-outs that look alike come from different tables or passages of the source.

The subject of this test is NCI-H358 cells. As to the kind of experiment: Inhibitory effect on proliferation of NCI-H358 cells (CellTiter-Glo, 72 h). In kind it is cell-based, human. An excerpt:
Inhibitory effect of compounds on the proliferation of […] cells • 1. Experimental principle: NCI-H358 cell is human non-small cell lung cancer cell line expressing KRAS G12C. […] Test materials: NCI-H358 cells were purchased from ATCC; CellTiter-GloR was purchased from Promega (item: G7571); RPMI-1640 was purchased from ATCC (item: 30-2001): fetal bovine serum (FBS) was purchased from EXCELL (item: FND500); Penicillin-streptomycin was purchased from Gibco (item: 15140-122); 0.25% trypsin-ethylenediaminetetraacetic acid digestive juice (Trypsin-EDTA) was purchased from Gibco (item: 25200-072); dimethyl sulfoxide (DMSO) was purchased from Sigma (item: D2650); 96-well plate was purchased from Corning (item: 3610); Incubator was purchased from Thermo (model: 3111); Inverted microscope was purchased from Nikon (item: TS-100); Automatic cell counter was purchased from Life technologies (model: Countess II); Enzyme plate reader was purchased from PerkinElmer (model: Envision); The data processing software was GraphPad Prism 5.0. • 3. Test method:
Cells in logarithmic growth phase were resuspended in growth medium (RPMI-1640+10% FBS) and diluted to target density ([…]). The above cell suspension was inoculated into 96-well plates at 100 μL per well; incubated overnight in a 37° C., 5% CO2 incubator. Medium was used as background control.
The test compound was dissolved in DMSO to prepare a stock solution at a concentration of 10 mmol/L. The stock solution was first diluted to 2 mmol/L with DMSO, and then diluted in 3-fold gradient for a total of 10 concentrations. 3 μL of each concentration of the above solution was taken and diluted with 197 μL of growth medium. […] at 50 μL/well in the 96-well plate. The cells to which the test compound was added were incubated in a 37° C., 5% CO2 incubator for 72 hours. The 96-well plate was equilibrated at room temperature, and 40 μL CellTiter-Glo reagent was added to each well. Then, the plate was mixed on the vortex for 2 minutes, incubated at room temperature for 60 minutes. The luminescence value was read on an EnVision microplate reader, and the IC50 of the compound was calculated using the GraphPad Prism 5.0 software.
A general note: ATP-based viability assays read luminescence as a measure of living cells.

What is called IC50 is the concentration at which inhibition is half-maximal. Read a low IC50 as higher potency.

Molecule `C=CC(=O)N1CCN(c2nc(OCC3CCCN3C)nc3c2CN(C)C2(CCc4ccccc42)C3)CC1` (stereo not shown) [Compound 1] registered an IC50 (Homo sapiens) of 1000 to 10000 nM.
As to `C=CC(=O)N1CCN(c2nc(OC[C@@H]3CCCN3C)nc3c2CN(C)C2(CCc4ccc(Cl)cc42)C3)C[C@@H]1CC#N` (stereo partly shown) [Compound 5], the IC50 (Homo sapiens) lay within 100 to 1000 nM.
The molecule `CN1CCC[C@H]1COc1nc2c(c(N3CCN(C(=O)/C=C/CF)[C@@H](CC#N)C3)n1)CN(C)C1(CCc3ccccc31)C2` (stereo partly shown) [Compound 14] returned an IC50 of 1000 to 10000 nM.
For `C=C(F)C(=O)N1CCN(c2nc(OC[C@@]34CCCN3C[C@H](F)C4)nc3c2CN(C)C2(CCc4cccc(Cl)c42)C3)C[C@@H]1CC#N` (stereo partly shown) [Compound 35], for the setting “Homo sapiens”, the IC50 is < 100 nM.
`C=CC(=O)N1CCN(c2nc(OC[C@@H]3CCCN3C)nc3c2CN(C)C2(CCc4ccccc42)C3)[C@@H](C)C1` (stereo partly shown) [Formate of 4]: the IC50 is 1000 to 10000 nM.
The same measure, in the same setting: then `C=CC(=O)N1CCN(c2nc(OC[C@@H]3CCCN3C)nc3c2CNC2(CCc4cccc(F)c42)C3)C[C@@H]1CC#N` (stereo partly shown) [Formate of 10], with 100 to 1000 nM; and `C=CC(=O)N1CCN(c2nc(OC[C@@H]3CCCN3C)nc3c2CN(C)C2(CCc4ccc(F)cc42)C3)C[C@@H]1CC#N` (stereo partly shown) [Formate of 11], with 1000 to 10000 nM.
For `CN(C)C/C=C/C(=O)N1CCN(c2nc(OC[C@@H]3CCCN3C)nc3c2CN(C)C2(CCc4cccc(F)c42)C3)C[C@@H]1CC#N` (stereo partly shown) [Formate of 15], the IC50 is 100 to 1000 nM.
Regarding `C=CC(=O)N1CCN(c2nc(OC[C@@H]3CCCN3C)nc3c2CN(C)C2(CCc4cccc(Cl)c42)C3)C[C@@H]1CC#N` (stereo partly shown) [Formate of 18], the 50% inhibitory concentration (IC50) is < 100 nM.
In the case of `C=CC(=O)N1CCN(c2nc(OC[C@@H]3CCCN3C)nc3c2CN(C)C2(CCCc4ccccc42)C3)C[C@@H]1CC#N` (stereo partly shown) [Formate of 20], the IC50 was < 100 nM.
Same read-out and setting: in the case of `C=CC(=O)N1CCN(c2nc(OC[C@@H]3CCCN3C)nc3c2CN(C)C2(CCOc4ccccc42)C3)C[C@@H]1CC#N` (stereo partly shown) [Formate of 22] it was 100 to 1000 nM; in that of `C=CC(=O)N1CCN(c2nc(OC[C@@H]3CCCN3C)nc3c2CN(C)C2(CCc4c(OC)cccc42)C3)C[C@@H]1CC#N` (stereo partly shown) [Formate of 24], 100 to 1000 nM.
On to `C=CC(=O)N1CCN(c2nc(OC[C@@]34CCCN3C[C@H](F)C4)nc3c2CN(C)C2(CCc4cccc(Cl)c42)C3)C[C@@H]1CC#N` (stereo partly shown) [Formate of 34], for which the IC50 is < 100 nM.
